The record followed here is patent US11633394B2, “Substituted alkynylene compounds as anticancer agents” (Aurigene Oncology Limited, priority 2018, dated 2023).

Common to all, as to assay type: cell-based
Assay [1] relates to NCI-H1792 cells. The experiment in a line: Anti proliferative activity in NCI-H1792 cells by XTT assay. To be noted: Homo sapiens, NCI-H1792, 72 h, H1792 cell line; for IC50: 72 hours incubation; for viability at 30 µM: 72 hours. The method, then:
Example 78: Determination of Anti Proliferative Activity in NCI-H1792 Cells by XTT Assay
NCI-H1792 cells (ATCC CRL-5895) were plated at 2000 cells/well in 96 well flat clear bottom plates (Corning, Cat. No 3596) using complete RPMI media. After 24 hours, compounds of present invention were added to cells from 20 mM stocks made in DMSO (Sigma Cat no. D2650). Each concentration of compound was tested in triplicate with DMSO concentration not exceeding a final percentage of 0.3 in the cells. After 72 hours of incubation in CO2 incubator, XTT (Invitrogen, Cat. no X6493) was added to the wells. XTT was dissolved in serum free media at 1 mg/ml and absorbance readings were taken in spectrophotometer at 465 nm. The data was analysed using graph pad prism software. Positive control (100% survival)=Cells in complete media with 0.3% DMSO; Negative control/blank (0% survival)=Media alone containing 0.3% DMSO.
(§1) The compounds of the present invention were screened in the above mentioned assay and the results are tabulated below.

In assay [2] the test system is NCI-H2122 cells. In words: Anti proliferative activity in NCI-H2122 cells by XTT assay. To be noted: H2122 cell line; for viability at 30 µM: 8 days; for IC50: 8 days (192 hour) incubation. How it is done:
Example 79: Determination of Anti Proliferative Activity in NCI-H2122 Cells by XTT Assay
NCI-H2122 cells (ATCC CRL-5985) were plated at 1000 cells/well in 96 well flat clear bottom plates (Corning, Cat. No 3596) using complete RPMI-1640 media. After 24 hours, compounds of present invention were added to cells from 10 mM stocks made in DMSO (Sigma Cat no. D2650). Each concentration of compound was tested in triplicate with DMSO concentration not exceeding a final percentage of 0.3 in the cells. Complete RPMI-1640 media changed at Day 3 (72 hour) and Day 6 (144 hour) along with compounds of current invention. After 8 days (192 hour) of incubation assay terminated using 50 μl of XTT reagent (Invitrogen, Cat. no X6493). XTT reagent was made by dissolving 1 mg/mi XTT in serum free media with addition of 25 μM Phenazine methosulfate (sigma Cat. no P9625). Absorbance readings were taken in spectrophotometer at 465 nm. The data was analysed using graph pad prism software. Positive control (100% survival)=Cells in complete media with 0.3% DMSO; Negative control/blank (0% survival)=Media alone containing 0.3% DMSO.
as §1

Assay [3] concerns OCI-Ly10 cells. In words: Anti proliferative activity in OCI-Ly10 cells (CTG luminescence). To be noted: for inhibition at 1 µM / inhibition at 10 µM: Homo sapiens, OCI-Ly10, 72 h. The method, then: Example 80: Determination of Anti Proliferative Activity in OCI-Ly10 Cells
OCI-Ly10 cells (UHN Canada) were plated at 7500 cells/well in 96 well flat bottom plates (Corning, Cat. No CLS3904) using complete Iscove's Modified Dulbecco's Medium (IMDM. After 6 hours, compounds from the present invention were added to the cells from 10 mM stocks made in DMSO (Sigma, Cat. No D2650). Each concentration of compound was tested in triplicates with DMSO concentration not exceeding a final percentage of 0.1 in the cells. After 72 hours of incubation in CO2 incubator, CTG (Promega, Cat. No G7572) was added to the wells and Luminescence readings were taken in the plate reader. Percent inhibition in proliferation was calculated using Microsoft Excel software. Positive control (100% survival)=Cells in complete media with 0.1% DMSO; Negative control/blank (0% survival)=Media alone containing 0.1% DMSO.

Usually IC50 stands for the midpoint of a concentration-inhibition curve. A word on the viability: it is a per cent measure of how many cells are alive, often set against a control. A higher viability goes with better survival. For the molecule `C=CC(=O)N1CCN(C(=O)NC(C)C#Cc2ccc(Cl)c(Cl)c2)CC1` (single isomer, unassigned) [Example 1a, 4-acryloyl-N-(4-(3,4-dichlorophenyl)but-3-yn-2-yl) piperazine-1-carboxamide], in assay [1], the IC50 was under 10 µM and the viability at 30 µM was found to be 45%. Besides, in assay [2] (Homo sapiens, NCI-H2122, 192 h), the viability at 30 µM turned out to be 26%.
For orientation: inhibition means the relative decrease from the control value, in per cent. High values mean a response far below the control, low ones a response near the control. In assay [1], `C=CC(=O)N1CCN(C(=O)NC(C)(C)C#Cc2ccc(Cl)c(Cl)c2)CC1` [Example 3] returned a concentration for half-maximal inhibition (IC50) of under 10 µM and a viability at 30 µM of 3%. Also, in assay [3] (at 1 μM), the inhibition at 1 µM was 12%. The same molecule showed an inhibition at 10 µM in assay [3] of 92%.
As for `C=CC(=O)NC1(C(=O)NC(C)C#Cc2ccc(Cl)c(Cl)c2)CCCC1` (stereo not shown) [Example 74], in assay [2] (Homo sapiens, NCI-H2122, 192 h), the 50% inhibitory concentration (IC50) was over 25 µM and the viability at 30 µM was determined as 60%.
As to `C=CCN(C(=O)C=C)C1CCN(C(=O)NC(C)C#Cc2ccc(Cl)c(Cl)c2)CC1` (stereo not shown) [Example 58], the half-maximal inhibitory concentration (IC50) in assay [1] is over 25 µM. The molecule further displayed a viability at 30 µM in assay [2] (Homo sapiens, NCI-H2122, 192 h) of 72%.
In assay [1], `C=CC(=O)N1CCC(C(=O)NC(C)C#Cc2ccc(Cl)c(Cl)c2)C1` (stereo not shown) [Example 71] registered a half-maximal inhibitory concentration (IC50) of 10 to 25 µM and a viability at 30 µM of 26%. Further, in assay [3], the inhibition at 10 µM is 62%. The “% inhibition (at 1 μM)” value in assay [3] (at 1 μM, 72 hours) came out at 9%.
`C=CC(=O)N1CCN(C(=O)NC2(C#Cc3ccc(Cl)c(C4(C)CC4)c3)CC2)CC1` [Example 26]: in assay [2] (Homo sapiens, NCI-H2122, 192 h), the 50% inhibitory concentration (IC50) was in the range of 10 to 25 µM.
As for `CC(C#Cc1ccc(Cl)c(Cl)c1)NC(=O)N1CCC(n2ccnc2)CC1` (stereo not shown) [Example 62], in assay [2] (Homo sapiens, NCI-H2122, 192 h), the IC50 fell in the range of 10 to 25 µM and the viability at 30 µM is 33%.
As for `C=CC(=O)N1CCN(C(=NC#N)NC(C)C#Cc2ccc(Cl)c(Cl)c2)CC1` (racemic) [Example 54, (E)-4-acryloyl-N′-cyano-N-(4-(3,4-dichlorophenyl)but-3-yn-2-yl) piperazine-carboximidamide], in assay [1], the half-maximal inhibitory concentration (IC50) is under 10 µM and the viability at 30 µM turned out to be 22%. The molecule further returned an inhibition at 1 µM in assay [3] (at 1 μM) of 37%. The molecule also showed an inhibition at 10 µM in assay [3] of 56%.
Take `C=CC(=O)N(C)[C@@H]1CCCC[C@H]1N(C)C(=O)NC(C)C#Cc1ccc(Cl)c(Cl)c1` (single isomer, unassigned) [Example 48a]: the IC50 in assay [2] is over 25 µM.
`C=CC(=O)N1CC(C(=O)N2CCN(C(=O)NC3(C#Cc4ccc(Cl)c(Cl)c4)CC3)CC2)C1` [Example 68, 4-(1-acryloylazetidine-3-carbonyl)-N-(1-((3,4-dichlorophenyl)ethynyl)cyclopropyl) piperazine-1-carboxamide]: in assay [2] (Homo sapiens, NCI-H2122, 192 h), the IC50 was over 25 µM.
In assay [2] (Homo sapiens, NCI-H2122, 192 h), `C=CC(=O)N1CCN(C(=O)NC(C)C#Cc2ccc(Cl)c(C3(C)CC3)c2)CC1` (stereo not shown) [Example 28] came in with a half-inhibitory concentration (IC50) of 10 to 25 µM.
In assay [2] (Homo sapiens, NCI-H2122, 192 h), `C=CC(=O)N1CCN(C(=O)NC(C)C#Cc2ccc(N(CC)CC)c(Cl)c2)CC1` (stereo not shown) [Example 31] returned an IC50 of 10 to 25 µM and a viability at 30 µM of 19%.
The matching figures for `C=CC(=O)N1CCN(C(=O)NC(C)C#Cc2ccc(OCc3ccccc3)c(Cl)c2)CC1` (stereo not shown) [Example 18]: under 10 µM and 1%.
In assay [2] (Homo sapiens, NCI-H2122, 192 h), `C=CC(=O)N1CCN(C(=O)NC(C)C#Cc2ccc(F)c(Cl)c2)CC1` (stereo not shown) [Example 22] returned an IC50 of over 25 µM and a viability at 30 µM of 49%.
With `C=CC(=O)N1CCN(C(=O)NC(C)C#Cc2ccc(Cl)s2)CC1` (stereo not shown) [Example 17], in assay [2] (Homo sapiens, NCI-H2122, 192 h), the IC50 was in the range of 10 to 25 µM and the viability at 30 µM is 19%.
In the case of `C#Cc1cc(C#CC2(NC(=O)N3CCN(C(=O)C=C)CC3)CC2)ccc1Cl` [Example 36], the inhibition at 1 µM in assay [3] (at 1 μM) came to 39%. This molecule also showed an inhibition at 10 µM in assay [3] of 65%.
`C=CC(=O)N1CCN(C(=O)NC(C)C#Cc2ccc(Cl)c(NC(C)=O)c2)CC1` (racemic) [Example 40, N-(4-(3-acetamido-4-chlorophenyl)but-3-yn-2-yl)-4-acryloylpiperazine-1-carboxamide]: the concentration for half-maximal inhibition (IC50) in assay [2] (Homo sapiens, NCI-H2122, 192 h) lay within 10 to 25 µM.
In assay [2] (Homo sapiens, NCI-H2122, 192 h), `C=CC(=O)N1CCN(C(=O)NC(C)C#Cc2ccc(F)cc2)CC1` (stereo not shown) [Example 64] showed an IC50 of over 25 µM and a viability at 30 µM of 56%.
The matching figures for `C=CC(=O)ON=C1CCN(C(=O)NC(C)C#Cc2ccc(Cl)c(Cl)c2)CC1` (stereo not shown) [Example 53]: 10 to 25 µM and 99%.
On to `C=CC(=O)N1CC(N2CCN(C(=O)NC3(C#Cc4ccc(Cl)c(C5(C)CC5)c4)CC3)CC2)C1` [Example 27], for which, in assay [2] (Homo sapiens, NCI-H2122, 192 h), the 50% inhibitory concentration (IC50) is under 10 µM.
Molecule `C=CC(=O)N1CCN(C(=O)NC2(C#Cc3cccc4ccccc34)CC2)CC1` [Example 35] returned an inhibition at 1 µM in assay [3] (at 1 μM) of 24%. This molecule showed an inhibition at 10 µM in assay [3] of 67%.
In assay [2] (Homo sapiens, NCI-H2122, 192 h), `CC(C#Cc1ccc(Cl)c(Cl)c1)NC(=O)N1CCN(CC2CO2)CC1` (stereo not shown) [Example 21] returned an IC50 of 10 to 25 µM and a viability at 30 µM of 31%.
Consider `C=CC(=O)N1CCN(C(=O)NC(C)C#Cc2ccc(Cl)cc2Cl)CC1` (stereo not shown) [Example 30], for which, in assay [2] (Homo sapiens, NCI-H2122, 192 h), the IC50 is 10 to 25 µM and the viability at 30 µM amounted to 19%.
The matching figures for `CC(C#Cc1ccc(Cl)c(Cl)c1)NC(=O)N1CCN(C(=O)/C(C#N)=C/N(C)C)CC1` (stereo not shown) [Example 60]: over 25 µM and 90%.
`CC(C#Cc1ccc(Cl)c(Cl)c1)NC(=O)N1CCN(C(=O)C2CC(Br)=NO2)CC1` (racemic) [Example 77, 4-(3-bromo-4,5-dihydroisoxazole-5-carbonyl)-N-(4-(3,4-dichlorophenyl)but-3-yn-2-yl)piperazine-1-carboxamide(±)]: the IC50 in assay [2] (Homo sapiens, NCI-H2122, 192 h) fell in the range of 10 to 25 µM.
In assay [2] (Homo sapiens, NCI-H2122, 192 h), `C=CC(=O)N1CCN(C(=O)NC(C)C#Cc2ccc(Cl)c(N(CC)CC)c2)CC1` (stereo not shown) [Example 32] registered a half-maximal inhibitory concentration (IC50) of 10 to 25 µM and a viability at 30 µM of 15%.
The molecule `CC(C#Cc1ccc(Cl)c(Cl)c1)NC(=O)N1CCN(C(=O)/C=C/C(F)(F)F)CC1` (stereo not shown) [Example 42a, (E)-N-(4-(3,4-dichlorophenyl)but-3-yn-2-yl)-4-(4,4,4-trifluorobut-2-enoyl) piperazine-1-carboxamide] had an IC50 in assay [2] (Homo sapiens, NCI-H2122, 192 h) of under 10 µM.
In the case of `CC(C#Cc1ccc(Cl)c(Cl)c1)NC(=O)N1CCN(C(=O)C2(C#N)CC2)CC1` (racemic) [Example 44, 4-(1-cyanocyclopropane-1-carbonyl)-N-(4-(3,4-dichlorophenyl)but-3-yn-2-yl) piperazine-1-carboxamide], in assay [2] (Homo sapiens, NCI-H2122, 192 h), the IC50 was over 25 µM and the viability at 30 µM is 99%.
In assay [2] (Homo sapiens, NCI-H2122, 192 h), `CC(C#Cc1ccc(Cl)c(Cl)c1)NC(=O)N1CCN(C(=O)CC#N)CC1` (stereo not shown) [Example 61] displayed an IC50 of over 25 µM and a viability at 30 µM of 59%.
`C=CC(=O)N[C@H]1CC[C@@H](NC(=O)NC(C)C#Cc2ccc(Cl)c(Cl)c2)CC1` (stereo partly shown) [Example 33] showed a viability at 30 µM in assay [1] of 54%. For the same molecule, the concentration for half-maximal inhibition (IC50) in assay [2] (Homo sapiens, NCI-H2122, 192 h) was over 25 µM.
Molecule `CC(C)/C=C(\C#N)C(=O)N1CCN(C(=O)NC2(C#Cc3ccc(Cl)c(Cl)c3)CC2)CC1` [Example 45, (E)-4-(2-cyano-4-methylpent-2-enoyl)-N-(1-((3,4-dichlorophenyl)ethynyl)cyclopropyl) piperazine-1-carboxamide] showed an inhibition at 1 µM in assay [3] (at 1 μM) of 0%. For the same molecule, the inhibition at 10 µM in assay [3] came out at 44%.
Regarding `C=C(C)C(=O)N1CCN(C(=O)NC(C)C#Cc2ccc(Cl)c(Cl)c2)CC1` (racemic) [Example 43, N-(4-(3,4-dichlorophenyl)but-3-yn-2-yl)-4-methacryloylpiperazine-1-carboxamide], in assay [2] (Homo sapiens, NCI-H2122, 192 h), the half-maximal inhibitory concentration (IC50) is over 25 µM and the viability at 30 µM stood at 78%.
Consider `C=CC(=O)N(C)[C@@H]1CCCC[C@H]1N(C)C(=O)NC(C)C#Cc1ccc(Cl)c(Cl)c1` (single isomer, unassigned) [Example 48b], for which the IC50 in assay [2] was in the range of 10 to 25 µM.
